Experimental data: PubChem BioAssay (NCI)
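In this assay, cells in 96-well plates receive the compound at five concentrations for 48 hours. Endpoints are linearly interpolated between the surrounding concentrations. At the TGI there is no net growth.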

Columns and labels:
Assay in all cases: NCI-60 cell line screen, 48 h
786-0 renal = tested on: 786-0 renal
A549 NSCLC = tested on: A549 NSCLC
ACHN renal = tested on: ACHN renal
BT-549 breast = tested on: BT-549 breast
CAKI-1 renal = tested on: CAKI-1 renal
COLO 205 colon = tested on: COLO 205 colon
DU-145 prostate = tested on: DU-145 prostate
EKVX NSCLC = tested on: EKVX NSCLC
HCT-116 colon = tested on: HCT-116 colon
HCT-15 colon = tested on: HCT-15 colon
HL-60(TB) leukemia = tested on: HL-60(TB) leukemia
HOP-62 NSCLC = tested on: HOP-62 NSCLC
HOP-92 NSCLC = tested on: HOP-92 NSCLC
HS 578T breast = tested on: HS 578T breast
HT29 colon = tested on: HT29 colon
K-562 leukemia = tested on: K-562 leukemia
KM12 colon = tested on: KM12 colon
LOX IMVI melanoma = tested on: LOX IMVI melanoma
M14 melanoma = tested on: M14 melanoma
MALME-3M melanoma = tested on: MALME-3M melanoma
MCF7 breast = tested on: MCF7 breast
MDA-MB-231 breast = tested on: MDA-MB-231 breast
MDA-MB-435 = tested on: MDA-MB-435
MDA-N = tested on: MDA-N
MOLT-4 leukemia = tested on: MOLT-4 leukemia
NCI-H23 lung = tested on: NCI-H23 lung
NCI-H460 lung = tested on: NCI-H460 lung
NCI/ADR-RES ovarian = tested on: NCI/ADR-RES ovarian
OVCAR-5 ovarian = tested on: OVCAR-5 ovarian
OVCAR-8 ovarian = tested on: OVCAR-8 ovarian
PC-3 prostate = tested on: PC-3 prostate
RPMI-8226 leukemia = tested on: RPMI-8226 leukemia
SF-268 CNS = tested on: SF-268 CNS
SF-295 CNS = tested on: SF-295 CNS
SF-539 CNS = tested on: SF-539 CNS
SK-MEL-5 melanoma = tested on: SK-MEL-5 melanoma
SK-OV-3 ovarian = tested on: SK-OV-3 ovarian
SNB-19 CNS = tested on: SNB-19 CNS
SR leukemia = tested on: SR leukemia
SW-620 colon = tested on: SW-620 colon
T-47D breast = tested on: T-47D breast
TK-10 renal = tested on: TK-10 renal
U251 CNS = tested on: U251 CNS
UACC-257 melanoma = tested on: UACC-257 melanoma
A498 renal = tested on: A498 renal
HCC-2998 colon = tested on: HCC-2998 colon
IGROV1 ovarian = tested on: IGROV1 ovarian
NCI-H226 lung = tested on: NCI-H226 lung
NCI-H522 lung = tested on: NCI-H522 lung
OVCAR-3 ovarian = tested on: OVCAR-3 ovarian
OVCAR-4 ovarian = tested on: OVCAR-4 ovarian
RXF 393 renal = tested on: RXF 393 renal
SK-MEL-2 melanoma = tested on: SK-MEL-2 melanoma
SK-MEL-28 melanoma = tested on: SK-MEL-28 melanoma
SN12C renal = tested on: SN12C renal
SNB-75 CNS = tested on: SNB-75 CNS
UACC-62 melanoma = tested on: UACC-62 melanoma
UO-31 renal = tested on: UO-31 renal

## COc1ccc(CCn2ccc(=O)c(O)c2C)cc1OC
786-0 renal
  TGI: 22.3 µM
A549 NSCLC
  TGI: > 100 µM
ACHN renal
  TGI: > 100 µM
BT-549 breast
  TGI: > 100 µM
CAKI-1 renal
  TGI: 12 µM
COLO 205 colon
  TGI: > 100 µM
DU-145 prostate
  TGI: 43 µM
EKVX NSCLC
  TGI: > 100 µM
HCT-116 colon
  TGI: > 100 µM
HCT-15 colon
  TGI: > 100 µM
HL-60(TB) leukemia
  TGI: 81.9 µM
HOP-62 NSCLC
  TGI: > 100 µM
HOP-92 NSCLC
  TGI: 80.5 µM
HS 578T breast
  TGI: 0.0907 µM
HT29 colon
  TGI: 77.4 µM
K-562 leukemia
  TGI: > 100 µM
KM12 colon
  TGI: > 100 µM
LOX IMVI melanoma
  TGI: 78.9 µM
M14 melanoma
  TGI: 36.7 µM
MALME-3M melanoma
  TGI: 91 µM
MCF7 breast
  TGI: 61.5 µM
MDA-MB-231 breast
  TGI: 6.2 µM
MDA-MB-435
  TGI: > 100 µM
MDA-N
  TGI: > 100 µM
MOLT-4 leukemia
  TGI: > 100 µM
NCI-H23 lung
  TGI: > 100 µM
NCI-H460 lung
  TGI: 31.2 µM
NCI/ADR-RES ovarian
  TGI: 57.9 µM
OVCAR-5 ovarian
  TGI: > 100 µM
OVCAR-8 ovarian
  TGI: > 100 µM
PC-3 prostate
  TGI: > 100 µM
RPMI-8226 leukemia
  TGI: 96.9 µM
SF-268 CNS
  TGI: 9.92 µM
SF-295 CNS
  TGI: > 100 µM
SF-539 CNS
  TGI: 73.9 µM
SK-MEL-5 melanoma
  TGI: 41.8 µM
SK-OV-3 ovarian
  TGI: > 100 µM
SNB-19 CNS
  TGI: > 100 µM
SR leukemia
  TGI: > 100 µM
SW-620 colon
  TGI: > 100 µM
T-47D breast
  TGI: 85.7 µM
TK-10 renal
  TGI: > 100 µM
U251 CNS
  TGI: > 100 µM
UACC-257 melanoma
  TGI: 31 µM

## O=C1c2c(Br)sc(Br)c2[C@H]2OC(=S)N[C@@H]12
786-0 renal
  TGI: 27 µM
A498 renal
  TGI: 32.5 µM
A549 NSCLC
  TGI: 37.5 µM
ACHN renal
  TGI: 11.1 µM
BT-549 breast
  TGI: 23.8 µM
CAKI-1 renal
  TGI: 7.81 µM
COLO 205 colon
  TGI: 5.58 µM
DU-145 prostate
  TGI: 26.9 µM
EKVX NSCLC
  TGI: 11.4 µM
HCC-2998 colon
  TGI: 22.4 µM
HCT-116 colon
  TGI: 7.6 µM
HCT-15 colon
  TGI: 3.76 µM
HOP-62 NSCLC
  TGI: 30.7 µM
HOP-92 NSCLC
  TGI: 27.3 µM
HS 578T breast
  TGI: > 52.7 µM
HT29 colon
  TGI: 4.05 µM
IGROV1 ovarian
  TGI: 23.9 µM
K-562 leukemia
  TGI: 6.35 µM
KM12 colon
  TGI: 38.8 µM
LOX IMVI melanoma
  TGI: 10.9 µM
M14 melanoma
  TGI: 4.1 µM
MALME-3M melanoma
  TGI: 10.4 µM
MCF7 breast
  TGI: 23.2 µM
MDA-MB-231 breast
  TGI: 25 µM
MDA-MB-435
  TGI: 8.65 µM
MDA-N
  TGI: 16.9 µM
MOLT-4 leukemia
  TGI: 5 µM
NCI-H226 lung
  TGI: 33.5 µM
NCI-H23 lung
  TGI: 15.1 µM
NCI-H460 lung
  TGI: 34.2 µM
NCI-H522 lung
  TGI: 3.4 µM
NCI/ADR-RES ovarian
  TGI: 31.6 µM
OVCAR-3 ovarian
  TGI: 7.26 µM
OVCAR-4 ovarian
  TGI: 13.3 µM
OVCAR-5 ovarian
  TGI: 32.4 µM
OVCAR-8 ovarian
  TGI: 12 µM
PC-3 prostate
  TGI: 14 µM
RPMI-8226 leukemia
  TGI: 40.3 µM
RXF 393 renal
  TGI: 8.8 µM
SF-268 CNS
  TGI: 12 µM
SF-295 CNS
  TGI: 30.1 µM
SF-539 CNS
  TGI: 31.2 µM
SK-MEL-2 melanoma
  TGI: 29 µM
SK-MEL-28 melanoma
  TGI: 7.94 µM
SK-MEL-5 melanoma
  TGI: 23.8 µM
SK-OV-3 ovarian
  TGI: 29.9 µM
SN12C renal
  TGI: 8.7 µM
SNB-19 CNS
  TGI: 30 µM
SNB-75 CNS
  TGI: 31 µM
SR leukemia
  TGI: 5.19 µM
SW-620 colon
  TGI: 5.84 µM
T-47D breast
  TGI: 44.2 µM
TK-10 renal
  TGI: 35 µM
U251 CNS
  TGI: 7.08 µM
UACC-257 melanoma
  TGI: 17.1 µM
UACC-62 melanoma
  TGI: 24.1 µM
UO-31 renal
  TGI: 3.34 µM
